In patent publication US5089479A, “Adhesion of Mycoplasma pneumoniae and Mycoplasma hominus to sulfatide” (priority 1988, dated 1992):
“Also recorded” adds a separate entry of the source.

Assays:
[1] = system: M. pneumoniae adhesion to WiDr cells; assay: Inhibition of M. pneumoniae adhesion to WiDr human colon adenocarcinoma cell monolayers; format: cell-based
Experimental: (§1) Adhesion of [^3 H]-M. pneumoniae to cells on glass covered slips was measured by a modification of a method previously described by Chandler et al., Infect. Immun., op. cit. WiDr human colon adenocarcinoma, ATCC CCL 218 was grown in Eagle's minimal essential medium with 10% fetal calf serum in a 5% CO2 atmosphere at 37° C. The cells were removed with trypsin and plated on 12 mm round glass coverslips in 24-well tissue culture plates and grown for three days. Control coverslips were preincubated in medium without cells. The coverslips were washed in serum-free medium, then incubated in RPMI-BSA for fifteen minutes. The medium was removed and labelled M. pneumoniae suspended in 0.5 ml of RPMI-BSA were added to each well. The plates were incubated on a rocking table for 60 minutes at 37° C. The coverslips were washed by dipping in saline six times, and the bound radioactive bacteria were determined by scintillation counting. For inhibition studies, the inhibitors were added to M. pneumoniae prior to adding the bacteria to the coverslips.
Because virulent strains of M. pneumoniae adhere to mammalian cells, monolayers of WiDr cells were used to determine if dextran sulfate inhibits adhesion of the organism. [^3 H] -labelled M. pneumoniae was incubated with WiDr cell monolayers attached to coverslips in triplicate with an without dextran sulfate, as shown in Table II. […] In each experiment, 10 μg/ml dextran sulfate inhibited more than 1 μg/ml, but 100 μg/ml dextran sulfate caused no further inhibition. Thus, maximal inhibition was obtained with approximately 10 μg/ml of dextran sulfate. Similar results were obtained with MRC5 lung fibroblasts where in three experiments a mean of 47% of M. pneumoniae adhesion was inhibited by dextran sulfate.
(§2) Adhesion of labelled M. pneumoniae to WiDr cells on glass cover slips was determined as described previously. For inhibition studies, dextran sulfate and 3'-sialyllactose were dissolved in RPMI-BSA and the pH was adjusted to 7.4 with NaOH. The inhibitors were added to wells containing washed cover slips with attached WiDr cells or blank cover slips preincubated in medium or tris-BSA. Labelled M. pneumoniae were added immediately and incubated with slow rocking for sixty minutes at 37° C. After the coverslips were washed by dipping six times in saline, bound M. pneumoniae were determined by scintillation counting in Aquasol. […] After washing to remove the unbound organisms, the bound mycoplasma were determined by scintillation counting. Binding to uncoated wells was 3% of the applied radioactivity.
Adhesion of [^3 H]-M. pneumoniae to WiDr cells growing on 13 mm glass cover slips was determined as described above. Inhibition by dextran sulfate or 3'-sialyllactose at the indicated concentrations was calculated relative to control binding determined in RPMI/BSA without inhibitors. The results are presented as percent inhibition (mean±S.D. n=4 with n=8 for determination of control binding without inhibitor).

[2] = system: M. pneumoniae adhesion to coverslips; assay: Inhibition of nonspecific adhesion of M. pneumoniae to coverslips without cells; format: binding, Mycoplasma pneumoniae strain M129
Experimental: as §1, §2

[3] = system: M. pneumoniae binding to laminin; assay: Inhibition of M. pneumoniae binding to laminin adsorbed on plastic; parameters: species or system Mycoplasma pneumoniae strain M129; details: for IC50: oligosaccharide concentrations as sialic acid, read-out: I.D.50, substrate laminin
Experimental: Glycoproteins dissolved in 0.01 M sodium phosphate buffer, pH 7.4, containing 150 mM NaCl, 1 mM CaCl2, and 0.01% NaN3 were adsorbed onto plastic polyvinylchloride […] microtiter plates by incubation for 16 hours at 4° C. The unbound proteins were removed, and the wells were filled with tris-BSA and incubated for 30 minutes at room temperature. The wells were rinsed with RPMI1640 containing 25 mM HEPES, pH 7.3, and 1% bovine serum albumin. M. pneumoniae strain M129 labelled with [^3 H]-palmitate were dispersed in RPMI-BSA by passing four times through a 26 gauge needle, and 50 μl of the suspension was applied to the wells. After incubation for 60 minutes at 37° C., the wells were washed five times with saline and the labelled M. pneumoniae bound to the proteins were quantified by scintillation counting in Aquasol.
For inhibition studies, sugars in 25 μl of RPMI-BSA were added to wells coated with 10 μg/ml laminin followed by 25 μl of [^3 H]-M. pneumoniae. Binding was determined to both laminin-coated and uncoated wells in triplicate at each inhibitor concentration and in the absence of inhibitor. In some experiments, the adsorbed proteins were pretreated with neuraminidase. After adsorption of the proteins and incubation in tris-BSA, the wells were rinsed three times with 50 mM sodium acetate, pH 5.5, containing 150 mM NaCl, 5 mM CaCl2, 1 mg/ml bovine serum albumin, and 1 mM phenylmethanesulfonyl fluoride. The wells were incubated with 0.05 units/ml neuraminidase in the same buffer or with buffer without enzyme overnight at 20° C. The wells were rinsed three times with tris-BSA, and M. pneumoniae binding was determined as described above.

[4] = target: M. pneumoniae binding to sulfatide; assay: Inhibition of M. pneumoniae binding to sulfatide adsorbed on plastic; parameters: species or system Mycoplasma pneumoniae strain M129
Experimental: (§3) Virulent M. pneumoniae strain M129, passage 5-15, were grown and metabolically labelled with [^3 H]palmitic acid, 12-17 Ci/mole, as described by Chandler et al. in Infect. Immun. 37: 942, 1982. The organisms were passed four times through a 26 gauge needle and suspended to approximately 10^7 cpm/ml of degassed RPMI 1640 medium containing 1% bovine serum albumin and 25 mM HEPES, pH 7.3.
(§4) The binding of M. pneumoniae to purified glycolipids immobilized in microtiter plates was measured as described by Krivan et al. in Proc. Natl. Acad. Sci., op. cit. Purified glycolipids were serially diluted in 25 μl of methanol containing 0.1 μg each of the auxiliary lipids cholesterol and phosphatidylcholine. After the solutions were dried by evaporation, the wells were filled with TBS-BSA, emptied after one hour, rinsed with RPMI-BSA, and incubated with 25 μl of [^3 H]-M. pneumoniae, approximately 10^7 cpm/ml RPMI-BSA. After incubation for two hours at 37° C., unless otherwise stated, the wells were washed five times with saline and bound M. pneumoniae was quantified by scintillation counting in Aquasol. For inhibition studies, various polysaccharides were serially diluted in […] of [^3 H]-M. pneumoniae.
To obtain the results shown in FIG. 4, polysaccharides were serially diluted in 25 μl of RPMI-BSA in microtiter wells previously coated with 1 μg of purified sulfatide. Binding was determined after incubation of two hours at 37° C. with 25 μl of [^3 H]-M. pneumoniae with the indicated concentration of dextran ( .circle. ) or dextran sulfate.

M. pneumoniae [5] = assay: Solid-phase binding of [3H]-M. pneumoniae to purified glycolipids immobilized in microtiter plates; parameters: species or system Mycoplasma pneumoniae strain M129; details: for binding of M. pneumoniae to immobilized lipid (in words): microtiter plate, up to 10 μg per well
Experimental: as §3, §4
To obtain the results shown in FIG. 2, lipids in […] each of the auxiliary lipids cholesterol and phosphatidylcholine were evaporated in flat bottom wells of polyvinylchloride microtiter plates. The wells were blocked with 1% albumin for one hour, washed twice with RPMI-BSA, and incubated at 25° C. with 25 μl of [^3 H]-M. pneumoniae, approximately […]. After two hours, the wells were washed five times with saline, cut from the plate, and bound radioactivity was quantified in a scintillation counter. In control experiments, organisms were incubated with auxiliary lipids only to correct for nonspecific binding, typically <1% of the total radioactivity added. M. pneumoniae binding was determined in RPMI-BSA for sulfatide ( .circle. ), lactosylceramide, paragloboside, and cholesterol sulfate, ceramide trihexoside, globoside, GM1, GM2, or GM3 ( .largecircle.).
Binding of [^3 H]-M. pneumoniae was determined in RPMI-BSA for two hours at 4° C., 25° C. ( .circle. ), 37° C., and at 37° C. in BSA without RPMI (Δ).

M. pneumoniae [6] = assay: Mycoplasma overlay assay: binding of [3H]-M. pneumoniae to glycolipids on thin layer chromatograms; parameters: species or system Mycoplasma pneumoniae strain M129; details: for Binding (ability to bind M. pneumoniae): Table I, class by amount of lipid bound; for binding of M. pneumoniae to glycolipid (in words): thin layer chromatogram overlay
Experimental: as §3
M. pneumoniae were bound to glycolipids separated on thin-layer chromatograms as described in detail for other bacteria by Krivan et al., Proc. Natl. Acad. Sci. 85: 6157-6161, 1988, and Krivan et al., Arch. Biochem. Biophys. 260:493-496, 1988. Briefly, glycolipids were separated by thin-layer chromatography on aluminum-backed silica gel high-performance plates developed with chlooform:methanol:0.25% CaCl2 in water (60:35:8). After chromatography, the plates were coated with 0.1% polyisobutylmethacrylate, soaked in 0.05 M Tris-HCl, pH 7.6, containing […] sodium chloride, 5 mM CaCl2, 0.2 mM phenylmethane-sulfonyl fluoride, and 1% bovine serum albumin (TBS-BSA) and incubated for three hours at 25° C. with 60 μl/cm^2 of [^3 H]-labelled M. pneumoniae, approximately 10^7 cpm/ml of RPMI-BSA. The plates were gently washed five times in 0.01 M sodium phosphate, pH 7.2, containing 0.15 M sodium chloride (PBS) to remove unbound organisms, dried, and exposed for 24 hours to Ultrofilm ^3 H (2208-190) high speed film.
To obtain the results shown in FIG. 1, glycolipids were chromatographed on aluminum-backed silica gel HPTLC plates developed in chloroform/methanol/0.25% CaCl2 in water, 60:35:8. The plates were coated with plastic, soaked in Tris-BSA, and incubated for three hours at 25° C. with [^3 H]-palmitate-labelled M. pneumoniae suspended in RPMI 1640 containing 1% BSA and 25 mM HEPES, pH 7.3, as described above (Panel A), or sprayed with orcinol reagent to identify glycolipids (Panel B). Lane a, acidic glycolipid standards sulfatide (0.5 μg), GM3 (2 μg), GM2 (2 μg), GD1a (2 μg), GD1b (2 μg), GT1b (2 μg); lane b, neutral standards galactosyl ceramide (4 μg), lactosylceramide (4 μg), globotriaosylceramide (2 μg), c2(0.5 μg). and c3 (o.1 μg); lane d, seminolipid (2 μg); lane e, cholesterol 3 -sulfate (2 μg); lane f, human trachea acidic glycolipids from 100 mg wet weight […]; lane h, α2-3sialylparagloboside (2 μg); lane 1, I-active monosialylganglioside from bovine erythrocytes (2 μg).

CC(=O)NC1C(O)CC(OC2C(O)C(CO)OC(OC3C(CO)OC(O)C(O)C3O)C2O)(C(=O)O)OC1C(O)C(O)CO (stereo not shown) [3'-sialyllactose]
inhibition of adhesion to WiDr cells (in words) [1]: partially inhibit | inhibition of adhesion to WiDr cells (in words) ([1]; listed as 3'-Sialyllactose): The inhibition is dose dependent | control adhesion remaining ([1]; WiDr, more than ten-fold higher than ID50 for binding to laminin, 60 min): 40% | inhibition of non-specific adhesion to coverslips (in words) ([2]; coverslips preincubated in medium containing fetal calf serum): specifically inhibited | inhibition of nonspecific binding to coverslips (in words) ([2]; coverslips preincubated in tris-BSA): does not inhibit nonspecific binding | inhibition of binding to laminin (in words) ([3]; laminin adsorbed on plastic): inhibited by 3'-sialyllactose at comparable concentrations; also recorded: inhibit attachment of M. pneumoniae to laminin | IC50 [3]: 300 µM | IC50 ([4]; oligosaccharide concentrations as sialic acid, read-out: I.D.50, substrate sulfatide): > 5000 µM | inhibition of binding to sulfatide (in words) ([4]; sulfatide adsorbed on plastic): Neither laminin nor 3'-sialyllactose inhibits M. pneumoniae attachment to sulfatide; also recorded: does not inhibit binding to sulfatide

CC(=O)NC1C(O)CC(OCC2OC(OC3C(CO)OC(O)C(O)C3O)C(O)C(O)C2O)(C(=O)O)OC1C(O)C(O)CO (stereo not shown) [6'-sialyllactose]
Binding % of control ([3]; 5 mM inhibitor, laminin substrate, 60 min): 54 % of control | relative inhibitory activity, binding to laminin (in words) ([3]; compared with 3'-sialyllactose or other fetuin oligosaccharide fractions): at least ten-fold less active | IC50 [3]: > 5000 µM

galactosyl ceramide-I^3 -sulfate [Sulfatide]
binding activity at 4° C. (M. pneumoniae [5]; 4° C., RPMI-BSA): almost completely abolished; also recorded: minimal | binding activity at 25° C. (relative to 37° C.) (M. pneumoniae [5]; 25° C., RPMI-BSA): about five times lower | amount of sulfatide required for half-maximum binding (M. pneumoniae [5]; 37° C., RPMI-BSA): about 0.25 μg | binding in nutrient-deficient medium (M. pneumoniae [5]; 37° C., Tris-BSA without RPMI): almost completely abolished; also recorded: bound poorly | binding in RPMI medium at 37° C. (M. pneumoniae [5]; RPMI medium, 37° C. / physiological temperatures): maximal | binding of M. pneumoniae to immobilized lipid (in words) (M. pneumoniae [5]): good dose response; also recorded: bind to sulfatide adsorbed on plastic; also recorded: sensitive and dose-dependent | Binding (ability to bind M. pneumoniae) (M. pneumoniae [6]): +++ (positive binding to less than 0.5 μg) | binding of M. pneumoniae to glycolipid (in words) (M. pneumoniae [6]; listed as galactosyl ceramide I^3 -sulfate): does not discriminate between galactosyl ceramide I^3 -sulfate and its unnatural 6-sulfate isomer | binding of M. pneumoniae to glycolipid (in words) (M. pneumoniae [6]; listed as sulfatide): bound strongly; also recorded: bound avidly | amount of glycolipid detected by M. pneumoniae overlay (M. pneumoniae [6]; thin layer chromatogram, lane C3): 100 ng

Paragloboside
binding of M. pneumoniae to immobilized lipid (in words) (M. pneumoniae [5]): bound weakly | Binding (ability to bind M. pneumoniae) (M. pneumoniae [6]): + (2-4 μg) | binding of M. pneumoniae to glycolipid (in words) (M. pneumoniae [6]): weakly
